Measured values published in patent publication US6352958B1, “Cycloimido-substituted benzofused heterocyclic herbicides” (FMC Corporation, priority 1997, dated 2002).

Experiments:
[1] = system: blackgrass (Aloepecurus myosuroides); assay: Postemergence herbicidal activity, blackgrass; type: in vivo; details: rate of application 0.3 Kg/Ha, rated after 12-17 days
[2] = system: common chickweed (Stellaria media); assay: Preemergence herbicidal activity, chickweed; type: in vivo; details: Rate of Application 0.3 Kg/Ha, examined after 12-17 days
[3] = system: wheat (Triticum aestivum var. Lew); assay: Preemergence herbicidal activity, wheat; type: in vivo; details: Rate of Application 0.3 Kg/Ha, examined after 12-17 days
[4] = system: velvetleaf (Abutilon theophrasti); assay: Postemergence herbicidal activity, velvetleaf; type: in vivo; details: rate of application 0.3 Kg/Ha, rated after 12-17 days
[5] = system: green foxtail (Setaria viridis); assay: Preemergence herbicidal activity, green foxtail; type: in vivo; details: Rate of Application 0.3 Kg/Ha, examined after 12-17 days
[6] = system: soybean (Glycine max var. Winchester); assay: Postemergence herbicidal activity, soybean; type: in vivo; details: rate of application 0.3 Kg/Ha, rated after 12-17 days
[7] = system: blackgrass (Aloepecurus myosuroides); assay: Preemergence herbicidal activity, blackgrass; type: in vivo; details: Rate of Application 0.3 Kg/Ha, examined after 12-17 days
[8] = system: velvetleaf (Abutilon theophrasti); assay: Preemergence herbicidal activity, velvetleaf; type: in vivo; details: Rate of Application 0.3 Kg/Ha, examined after 12-17 days
[9] = system: soybean (Glycine max var. Winchester); assay: Preemergence herbicidal activity, soybean; type: in vivo; details: Rate of Application 0.3 Kg/Ha, examined after 12-17 days
[10] = system: morningglory (Ipomea lacunosa or Ipomea hederacea); assay: Postemergence herbicidal activity, morningglory; type: in vivo; details: rate of application 0.3 Kg/Ha, rated after 12-17 days
[11] = system: common cocklebur (Xanthium strumarium L.); assay: Preemergence herbicidal activity, cocklebur; type: in vivo; details: Rate of Application 0.3 Kg/Ha, examined after 12-17 days
[12] = system: Johnsongrass (Sorghum halepense); assay: Preemergence herbicidal activity, johnsongrass; type: in vivo; details: Rate of Application 0.3 Kg/Ha, examined after 12-17 days
[13] = system: field corn (Zea mays var. Pioneer 3732); assay: Preemergence herbicidal activity, corn; type: in vivo; details: Rate of Application 0.3 Kg/Ha, examined after 12-17 days
[14] = system: green foxtail (Setaria viridis); assay: Postemergence herbicidal activity, green foxtail; type: in vivo; details: rate of application 0.3 Kg/Ha, rated after 12-17 days
[15] = system: Johnsongrass (Sorghum halepense); assay: Postemergence herbicidal activity, johnsongrass; type: in vivo; details: rate of application 0.3 Kg/Ha, rated after 12-17 days
[16] = system: morningglory (Ipomea lacunosa or Ipomea hederacea); assay: Preemergence herbicidal activity, morningglory; type: in vivo; details: Rate of Application 0.3 Kg/Ha, examined after 12-17 days
[17] = system: wheat (Triticum aestivum var. Lew); assay: Postemergence herbicidal activity, wheat; type: in vivo; details: rate of application 0.3 Kg/Ha, rated after 12-17 days
[18] = system: field corn (Zea mays var. Pioneer 3732); assay: Postemergence herbicidal activity, corn; type: in vivo; details: rate of application 0.3 Kg/Ha, rated after 12-17 days
[19] = system: common cocklebur (Xanthium strumarium L.); assay: Postemergence herbicidal activity, cocklebur; type: in vivo; details: rate of application 0.3 Kg/Ha, rated after 12-17 days
[20] = system: common chickweed (Stellaria media); assay: Postemergence herbicidal activity, chickweed; type: in vivo; details: rate of application 0.3 Kg/Ha, rated after 12-17 days

Work on `Cn1c(C(F)(F)F)cc(=O)n(-c2c(F)cc(Cl)c3[nH]c(C(C)(C)C)nc23)c1=O` [Compound 369, 3-(2-T-BUTYL4-CHLORO-6-FLUOROBENZIMIDAZOL-7-YL)-1-METHYL-6-TRIFLUOROMETHYL-2,4(1H,3H)-PYRIMIDINEDIONE] yielded an inhibition at 300 g/ha ([1]; Alopecurus myosuroides, post-emergence, read-out: Postemergence herbicidal activity (% control) ALOMY) of 100%, an inhibition at 300 g/ha ([2]; Stellaria media, pre-emergence, read-out: PREEMERGENCE HERBICIDAL ACTIVITY (% CONTROL) STEME) of 100% and an inhibition at 300 g/ha ([3]; Triticum aestivum, pre-emergence, read-out: PREEMERGENCE HERBICIDAL ACTIVITY (% CONTROL) WHT) of 100%. It also gave an inhibition at 300 g/ha ([4]; Abutilon theophrasti, post-emergence, read-out: Postemergence herbicidal activity (% control) ABUTH) of 100%, an inhibition at 300 g/ha ([5]; Setaria viridis, pre-emergence, read-out: PREEMERGENCE HERBICIDAL ACTIVITY (% CONTROL) SETVI) of 100% and an inhibition at 300 g/ha ([6]; Glycine max, post-emergence, read-out: Postemergence herbicidal activity (% control) SOY) of 100%. For the same molecule, the inhibition at 300 g/ha ([7]; Alopecurus myosuroides, pre-emergence, read-out: PREEMERGENCE HERBICIDAL ACTIVITY (% CONTROL) ALOMY) was 100%, the inhibition at 300 g/ha ([8]; Abutilon theophrasti, pre-emergence, read-out: PREEMERGENCE HERBICIDAL ACTIVITY (% CONTROL) ABUTH) was 100% and the inhibition at 300 g/ha ([9]; Glycine max, pre-emergence, read-out: PREEMERGENCE HERBICIDAL ACTIVITY (% CONTROL) SOY) was 100%. For the same molecule, the inhibition at 300 g/ha ([10]; Ipomoea, post-emergence, read-out: Postemergence herbicidal activity (% control) IPOSS) was 100%, the inhibition at 300 g/ha ([11]; Xanthium strumarium, pre-emergence, read-out: PREEMERGENCE HERBICIDAL ACTIVITY (% CONTROL) XANPE) was 100% and the inhibition at 300 g/ha ([12]; Sorghum halepense, pre-emergence, read-out: PREEMERGENCE HERBICIDAL ACTIVITY (% CONTROL) SORHA) was 100%. The inhibition at 300 g/ha ([13]; Zea mays, pre-emergence, read-out: PREEMERGENCE HERBICIDAL ACTIVITY (% CONTROL) CRN) was 100%, the melting point was 125 to 130 °C and the inhibition at 300 g/ha ([14]; Setaria viridis, post-emergence, read-out: Postemergence herbicidal activity (% control) SETVI) was 100%. For the same molecule, the inhibition at 300 g/ha ([15]; Sorghum halepense, post-emergence, read-out: Postemergence herbicidal activity (% control) SORHA) was 100%, the inhibition at 300 g/ha ([16]; Ipomoea, pre-emergence, read-out: PREEMERGENCE HERBICIDAL ACTIVITY (% CONTROL) IPOSS) was 100% and the inhibition at 300 g/ha ([17]; Triticum aestivum, post-emergence, read-out: Postemergence herbicidal activity (% control) WHT) was 80%. For the same molecule, the inhibition at 300 g/ha ([18]; Zea mays, post-emergence, read-out: Postemergence herbicidal activity (% control) CRN) was 100% and the inhibition at 300 g/ha ([19]; Xanthium strumarium, post-emergence, read-out: Postemergence herbicidal activity (% control) XANPE) was 100%.

For `CCOC(=O)c1cc2c(-n3c(=O)cc(C(F)(F)F)n(C)c3=O)c(F)cc(Cl)c2n1C` [Compound 522], the “Postemergence herbicidal activity (% control) ALOMY” value [1] was 50%, the “PREEMERGENCE HERBICIDAL ACTIVITY (% CONTROL) STEME” value [2] was 100% and the “PREEMERGENCE HERBICIDAL ACTIVITY (% CONTROL) WHT” value [3] was 40%. For the same molecule, the “Postemergence herbicidal activity (% control) ABUTH” value [4] was 100%, the “PREEMERGENCE HERBICIDAL ACTIVITY (% CONTROL) SETVI” value [5] was 100% and the “Postemergence herbicidal activity (% control) SOY” value [6] was 90%. The “PREEMERGENCE HERBICIDAL ACTIVITY (% CONTROL) ALOMY” value [7] was 75%, the “PREEMERGENCE HERBICIDAL ACTIVITY (% CONTROL) ABUTH” value [8] was 100% and the “PREEMERGENCE HERBICIDAL ACTIVITY (% CONTROL) SOY” value [9] was 90%. The “Postemergence herbicidal activity (% control) IPOSS” value [10] was 100%, the “PREEMERGENCE HERBICIDAL ACTIVITY (% CONTROL) XANPE” value [11] was 50% and the “PREEMERGENCE HERBICIDAL ACTIVITY (% CONTROL) SORHA” value [12] was 100%. For the same molecule, the “PREEMERGENCE HERBICIDAL ACTIVITY (% CONTROL) CRN” value [13] was 80%, the “Postemergence herbicidal activity (% control) STEME” value [20] was 100% and the “Postemergence herbicidal activity (% control) SETVI” value [14] was 100%. For the same molecule, the “Postemergence herbicidal activity (% control) SORHA” value [15] was 100%, the “PREEMERGENCE HERBICIDAL ACTIVITY (% CONTROL) IPOSS” value [16] was 100% and the “Postemergence herbicidal activity (% control) WHT” value [17] was 45%. The “Postemergence herbicidal activity (% control) CRN” value [18] was 90% and the “Postemergence herbicidal activity (% control) XANPE” value [19] was 100%.
